In patent US20250064990A1, “METHODS OF SCREENING FOR VMAT2 INHIBITORS” (Neurocrine Biosciences, Inc., priority 2021, published 2025):
Like-named read-outs stand apart in the source and are kept apart here.

Assays:
[1] = target: VMAT2 (Macaca fascicularis, UniProt A0A2K5UVB8); assay: VMAT2 occupancy in NHP brain after i.v. NBI-750142, [^18F]AV-133 PET; format: in vivo, cynomolgus monkeys (Macaca fascicularis); conditions: for receptor occupancy at 0.084 mg/kg / receptor occupancy at 0.52 mg/kg / receptor occupancy at 0.026 mg/kg / receptor occupancy at 0.26 mg/kg / receptor occupancy at 0.78 mg/kg: cynomolgus monkey
From the text: The aim of this study was to assess the relationship between NBI-750142 dose/plasma concentration and VMAT2 occupancy with [^18F]AV-133 using PET in non-human primate (NIP) brain. A radioligand, [^18F]AV-133, has been used to image and quantify brain VMAT2 in vivo.
Three non-naïve cynomolgus monkeys (Macaca fascicularis) were used in this study. The animals were judged to be in good health before the start of the study. At study origination the animals were 7 (female, EC865), 8 (male, GC786) and 9 (female, LC206) years old and weighed 4.2, 7.0, and 5.4 kg, respectively.
The animals were imaged with [^18F]AV-133 at baseline with vehicle (0.9% saline) and post NBI-750142 blockade on separate days. Vehicle and NBI-750142 were administered as an intravenous (i.v.) bolus followed by a constant infusion over 3 hours. [^18F]AV-133 was injected as an i.v. bolus, 1 h after administration of vehicle/NBI-750142. The design study is summarized below Table 2-1.
Dynamic data were acquired in the MicroPET Focus-220 camera (Siemens Microsystems, Knoxville, TN). Emission data were collected for 120 min post-injection and reconstructed into a series of 33 frames and all standard corrections were applied: normalization, random, scatter and attenuation. Dynamic brain PET images were transferred and analyzed using the image processing PMOD software package v3.802 (PMOD Technologies, Zurich, Switzerland). The PET images were rigidly aligned to a previously acquired animal's brain T1 MRI and then spatially normalized to a common cynomolgus MRI template for anatomical brain region definition.
Volumes of interest (VOIs) defined in the cynomolgus template space (see e.g., Ballanger et al. Neuroimage, 2013, 7:26-43) were applied to the spatially normalized PET images to compute time-activity curves (TACs, kBq/cm^3) for caudate (0.96 cm^3), putamen (1.34 cm^3) and cerebellum (3.81 cm^3). TACs and images (averaged between 60-120 min) were presented in Standard Uptake Value (SUV) units (g/mL) normalized by the weight of the animal and the injected dose.
Non-invasive Logan graphical analysis (start time of fit, t*=35 min) was used to estimate regional non-displaceable binding potential (BPND) using the TACs in the caudate and putamen, with the cerebellar cortex as the reference TAC. BPND was calculated in the in the caudate and putamen across baseline and NBI-750142 scans. Target occupancy was calculated according to Equation 1-1.
where h is the Hill slope (h=1.0) and C is the mean of observed plasma concentrations during the scanning interval (60 to 180 minutes post-dose).

[2] = NBI-750142 plasma concentration in healthy subjects; format: in vivo; conditions: human, 18 h post single oral dose, across cohorts, approximately, read-out: NBI-750142 plasma concentrations at T2

Chain of VMAT2 (A0A2K5UVB8 entry or part of it): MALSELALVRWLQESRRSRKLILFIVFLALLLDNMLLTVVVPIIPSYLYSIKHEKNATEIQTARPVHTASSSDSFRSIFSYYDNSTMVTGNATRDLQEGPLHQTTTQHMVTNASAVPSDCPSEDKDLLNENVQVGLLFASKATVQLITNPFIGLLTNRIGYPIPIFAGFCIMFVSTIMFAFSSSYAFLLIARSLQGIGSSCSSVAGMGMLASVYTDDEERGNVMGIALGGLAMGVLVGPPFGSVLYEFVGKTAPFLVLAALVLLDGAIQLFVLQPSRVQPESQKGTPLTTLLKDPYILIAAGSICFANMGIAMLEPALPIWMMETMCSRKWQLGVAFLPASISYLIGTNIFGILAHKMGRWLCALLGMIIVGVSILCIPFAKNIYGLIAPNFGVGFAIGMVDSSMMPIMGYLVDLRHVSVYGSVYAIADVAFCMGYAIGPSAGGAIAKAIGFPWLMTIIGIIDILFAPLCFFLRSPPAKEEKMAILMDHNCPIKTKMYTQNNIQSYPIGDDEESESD

## COc1cc2c(cc1OC)[C@H]1CN(C)[C@H](CC(C)(C)C)CN1CC2 [NBI-750142]
[1]; animal EC865, Caudate, NBI-750142 0.084 mg/kg
  [^18F]AV-133 BPND: 2.39
[1]; animal EC865, Caudate, NBI-750142 0.52 mg/kg
  [^18F]AV-133 BPND: 1.01
[1]; animal EC865, Putamen, NBI-750142 0.084 mg/kg
  [^18F]AV-133 BPND: 3.10
[1]; animal EC865, Putamen, NBI-750142 0.52 mg/kg
  [^18F]AV-133 BPND: 1.18
[1]; animal GC786, Caudate, NBI-750142 0.026 mg/kg
  [^18F]AV-133 BPND: 3.10
[1]; animal GC786, Caudate, NBI-750142 0.26 mg/kg
  [^18F]AV-133 BPND: 2.22
[1]; animal GC786, Caudate, NBI-750142 0.78 mg/kg
  [^18F]AV-133 BPND: 0.33
[1]; animal GC786, Putamen, NBI-750142 0.026 mg/kg
  [^18F]AV-133 BPND: 3.53
[1]; animal GC786, Putamen, NBI-750142 0.26 mg/kg
  [^18F]AV-133 BPND: 2.39
[1]; animal GC786, Putamen, NBI-750142 0.78 mg/kg
  [^18F]AV-133 BPND: 0.43
[1]; animal LC206, Caudate, NBI-750142 0.26 mg/kg
  [^18F]AV-133 BPND: 1.42
[1]; animal LC206, Putamen, NBI-750142 0.26 mg/kg
  [^18F]AV-133 BPND: 1.61
[1]; caudate and putamen vs baseline
  [^18F]AV-133 binding post administration of NBI-750142: dose-dependent decrease
[1]; iv, read-out: % Occ, animal EC865, Caudate, 0.084 mg/kg
  receptor occupancy at 0.084 mg/kg: 38.7%
[1]; iv, read-out: % Occ, animal EC865, Caudate, 0.52 mg/kg
  receptor occupancy at 0.52 mg/kg: 74.2%
[1]; iv, read-out: % Occ, animal EC865, Putamen, 0.084 mg/kg
  receptor occupancy at 0.084 mg/kg: 40.9%
[1]; iv, read-out: % Occ, animal EC865, Putamen, 0.52 mg/kg
  receptor occupancy at 0.52 mg/kg: 77.5%
[1]; iv, read-out: % Occ, animal GC786, Caudate, 0.026 mg/kg
  receptor occupancy at 0.026 mg/kg: 31.1%
[1]; iv, read-out: % Occ, animal GC786, Caudate, 0.26 mg/kg
  receptor occupancy at 0.26 mg/kg: 50.8%
[1]; iv, read-out: % Occ, animal GC786, Caudate, 0.78 mg/kg
  receptor occupancy at 0.78 mg/kg: 92.7%
[1]; iv, read-out: % Occ, animal GC786, Putamen, 0.026 mg/kg
  receptor occupancy at 0.026 mg/kg: 25.8%
[1]; iv, read-out: % Occ, animal GC786, Putamen, 0.26 mg/kg
  receptor occupancy at 0.26 mg/kg: 49.7%
[1]; iv, read-out: % Occ, animal GC786, Putamen, 0.78 mg/kg
  receptor occupancy at 0.78 mg/kg: 90.9%
[1]; iv, read-out: % Occ, animal LC206, Caudate, 0.26 mg/kg
  receptor occupancy at 0.26 mg/kg: 64.5%
[1]; iv, read-out: % Occ, animal LC206, Putamen, 0.26 mg/kg
  receptor occupancy at 0.26 mg/kg: 63.7%
[1]; read-out: Target Occupancy, Mean of Putamen and Caudate, EC865, 0.084 mg/kg
  receptor occupancy at 0.084 mg/kg: 40%
[1]; read-out: Target Occupancy, Mean of Putamen and Caudate, EC865, 0.52 mg/kg
  receptor occupancy at 0.52 mg/kg: 76%
[1]; read-out: Target Occupancy, Mean of Putamen and Caudate, GC786, 0.026 mg/kg
  receptor occupancy at 0.026 mg/kg: 28%
[1]; read-out: Target Occupancy, Mean of Putamen and Caudate, GC786, 0.26 mg/kg
  receptor occupancy at 0.26 mg/kg: 50%
[1]; read-out: Target Occupancy, Mean of Putamen and Caudate, GC786, 0.78 mg/kg
  receptor occupancy at 0.78 mg/kg: 92%
[1]; read-out: Target Occupancy, Mean of Putamen and Caudate, LC206, 0.26 mg/kg
  receptor occupancy at 0.26 mg/kg: 64%
[1]; striatum, Emax model, Hill slope 1, cynomolgus monkey PET
  50% effective total concentration (EC50) of plasma NBI-750142 for VMAT2 occupancy: 0.011 µg/mL
[2]
  concentration at 18 h: 0.3 to 10 ng/mL
